Results as given in ChEMBL document CHEMBL1201862, “PubChem BioAssay data set” (2004).
The source made the active and inactive calls. Rule as the data show it: actives have a measured IC50 and inactives only a lower limit.

Target: Envelope glycoprotein gp160 (Human immunodeficiency virus 1, UniProt Q6QLK5)
Experiment: inhibitors of HIV fusion peptide binding, primary screen, biochemical, uHTS, fluorescence dequenching (AID 1986)

Sequence of Envelope glycoprotein gp160 (Q6QLK5 whole entry, the tested form may be a part): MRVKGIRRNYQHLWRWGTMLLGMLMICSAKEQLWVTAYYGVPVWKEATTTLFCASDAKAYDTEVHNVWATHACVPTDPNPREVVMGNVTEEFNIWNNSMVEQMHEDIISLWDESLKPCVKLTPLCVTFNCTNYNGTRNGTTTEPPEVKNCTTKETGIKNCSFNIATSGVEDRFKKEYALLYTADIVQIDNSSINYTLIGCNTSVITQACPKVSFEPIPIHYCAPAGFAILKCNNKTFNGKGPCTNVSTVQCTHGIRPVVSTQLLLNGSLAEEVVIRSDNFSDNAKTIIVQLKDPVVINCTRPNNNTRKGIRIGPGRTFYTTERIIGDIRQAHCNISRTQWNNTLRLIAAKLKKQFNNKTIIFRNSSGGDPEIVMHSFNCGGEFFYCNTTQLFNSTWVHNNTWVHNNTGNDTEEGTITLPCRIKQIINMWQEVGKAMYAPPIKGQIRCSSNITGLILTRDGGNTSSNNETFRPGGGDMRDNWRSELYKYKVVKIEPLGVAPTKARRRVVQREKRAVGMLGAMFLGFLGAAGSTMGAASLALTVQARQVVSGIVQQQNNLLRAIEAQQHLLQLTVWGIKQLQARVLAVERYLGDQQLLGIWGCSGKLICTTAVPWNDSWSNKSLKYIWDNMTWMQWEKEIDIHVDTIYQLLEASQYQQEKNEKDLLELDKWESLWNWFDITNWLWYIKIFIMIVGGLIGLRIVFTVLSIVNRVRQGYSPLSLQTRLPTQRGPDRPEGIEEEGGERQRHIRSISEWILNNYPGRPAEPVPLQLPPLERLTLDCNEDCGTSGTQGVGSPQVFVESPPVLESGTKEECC

In the case of `Cc1[nH]n(-c2ccccc2)c(=O)c1/C=C1/C(=O)NN(c2ccc(F)c(Cl)c2)C1=O`, the IC50 is reported as 12.1 µM (active).
